Laboratory results from ChEMBL document CHEMBL5620374, “Synthesis and bioevaluation of novel stilbene-based derivatives as tubulin/HDAC dual-target inhibitors with potent antitumor activities in vitro and in vivo” (Eur J Med Chem, 2023).
Each block holds one molecule with its values, some of them ahead of it.

Legend:
K562 [1] = assay: Antiproliferative activity against human K562 cells incubated for 72 hrs by MTT assay; format: functional, cell-based; conditions: K562, 72 h
K562 [2] = assay: Antiproliferative activity against human K562 cells assessed as cell inhibition rate at 1 uM incubated for 72 hrs by MTT assay relative to control; format: functional
K562 [3] = assay: Antiproliferative activity against human K562 cells assessed as cell inhibition rate at 0.1 uM incubated for 72 hrs by MTT assay relative to control; format: functional
K562 [4] = assay: Antiproliferative activity against human K562 cells assessed as cell inhibition rate at 0.01 uM incubated for 72 hrs by MTT assay relative to control; format: functional
B16-F10 = assay: Antiproliferative activity against mouse B16-F10 cells incubated for 72 hrs by MTT assay; format: functional, cell-based; conditions: B16-F10, 72 h
[5] = Antiproliferative activity against human HFL1 cells incubated for 72 hrs by MTT assay; format: toxicity, cell-based
MCF7 = assay: cells; conditions: Homo sapiens, MCF7, 72 h
Description: Antiproliferative activity against human MCF7 cells incubated for 72 hrs by MTT assay

MDA-MB-231 = assay: cells; conditions: Homo sapiens, MDA-MB-231, 72 h
Description: Antiproliferative activity against human MDA-MB-231 cells incubated for 72 hrs by MTT assay

A549 = assay: cells; conditions: Homo sapiens, A549, 72 h
Description: Antiproliferative activity against human A549 cells incubated for 72 hrs by MTT assay

A2780 = assay: cells; conditions: Homo sapiens, A2780, 72 h
Description: Antiproliferative activity against human A2780 cells incubated for 72 hrs by MTT assay

Compound: C=C(c1cccc(OCCCC(=O)NO)c1)c1cc(C)nc2ccccc12
IC50 (K562 [1]): 3000 nM

Compound: C=C(c1cccc(OCC(=O)NO)c1)c1cc(C)nc2ccccc12
IC50 (K562 [1]): 2480 nM

Compound: COc1ccc(/C=C\c2cc(OC)c(OC)c(OC)c2)cc1O [COMBRETASTATIN A4]
inhibition at 1 µM (K562 [2]): 95%
inhibition at 0.1 µM (K562 [3]): 88.4%
inhibition at 0.01 µM (K562 [4]): 86.6%
IC50 (K562 [1]): 7 nM
IC50 (B16-F10): 7 nM
IC50 at 72 h [5]: 82 nM
IC50 (MCF7): 71 nM
IC50 (MDA-MB-231): 29 nM
IC50 (A549): 2 nM

Compound: C=C(c1ccc(OC)c(C(=O)NO)c1)c1cc(C)nc2ccccc12
IC50 (K562 [1]): 1320 nM

Compound: C=C(c1ccc2[nH]ccc2c1)c1cc(C(=O)Nc2ccccc2N)nc2ccccc12
inhibition at 1 µM (K562 [2]): 2.75%
inhibition at 0.1 µM (K562 [3]): 2.75%
inhibition at 0.01 µM (K562 [4]): -0.17%

Compound: C=C(c1cccc(OCCCCCC(=O)NO)c1)c1cc(C)nc2ccccc12
IC50 (K562 [1]): 9270 nM

Compound: C=C(c1ccc(OC)c(OCCCC(=O)NO)c1)c1ccnc2ccccc12
IC50 (K562 [1]): 1460 nM

Compound: C=C(c1ccc(OC)c(O)c1)c1cc(C(=O)Nc2ccccc2N)nc2ccccc12
inhibition at 1 µM (K562 [2]): 4.26%
inhibition at 0.1 µM (K562 [3]): 3.71%
inhibition at 0.01 µM (K562 [4]): 0.16%

Compound: C=C(c1ccnc(C)c1)c1ccc(OC)c(OCCCC(=O)NO)c1
IC50 (K562 [1]): 1490 nM

Compound: C=C(c1cccc(OC(C)(C)C(=O)NO)c1)c1cc(C)nc2ccccc12
IC50 (K562 [1]): 6860 nM

Compound: C=C(c1ccc(OC)c(OCCCCCC(=O)NO)c1)c1cc(C)nc2ccccc12
IC50 (K562 [1]): 2260 nM

Compound: C=C(c1ccc(OC)c(O)c1)c1cc(/C=C/C(=O)NO)nc2ccccc12
inhibition at 1 µM (K562 [2]): 87.3%
inhibition at 0.1 µM (K562 [3]): 12.9%
inhibition at 0.01 µM (K562 [4]): -0.17%

Compound: C=C(c1ccc(OC)c(O)c1)c1cc(COCC(=O)NO)nc2ccccc12
inhibition at 1 µM (K562 [2]): 71.5%
inhibition at 0.1 µM (K562 [3]): 6.41%
inhibition at 0.01 µM (K562 [4]): 0.83%

Compound: C=C(c1ccc2[nH]ccc2c1)c1cc(COCC(=O)NO)nc2ccccc12
inhibition at 1 µM (K562 [2]): 15%
inhibition at 0.1 µM (K562 [3]): 6.23%
inhibition at 0.01 µM (K562 [4]): 2.28%

Compound: C=C(c1ccc(OC)c(OCCCCCC(=O)NO)c1)c1ccnc2ccccc12
IC50 (K562 [1]): 3340 nM

Compound: C=C(c1ccc(OC)cc1)c1cc(C(=O)Nc2ccccc2N)nc2ccccc12
inhibition at 1 µM (K562 [2]): 1.1%
inhibition at 0.1 µM (K562 [3]): 0.24%
inhibition at 0.01 µM (K562 [4]): -0.16%

Compound: C=C(c1ccc(OC)c(OCCCCC(=O)NO)c1)c1cc(C)nc2ccccc12
IC50 (K562 [1]): 1840 nM

Compound: C=C(c1ccc(OC)cc1)c1cc(/C=C/C(=O)NO)nc2ccccc12
inhibition at 1 µM (K562 [2]): 43.5%
inhibition at 0.1 µM (K562 [3]): 6.82%
inhibition at 0.01 µM (K562 [4]): 1.41%

Compound: C=C(c1ccnc(C)c1)c1ccc(OC)c(OCCCCCC(=O)NO)c1
IC50 (K562 [1]): 2880 nM

Compound: C=C(c1ccc(OC)c(C(=O)Nc2ccccc2N)c1)c1cc(C)nc2ccccc12
IC50 (K562 [1]): 22200 nM

Compound: C=C(c1cc(C)nc(C)c1)c1ccc(OC)c(OCCCCCC(=O)NO)c1
IC50 (K562 [1]): 1920 nM

Compound: C=C(c1cccc(OC/C=C/C(=O)NO)c1)c1cc(C)nc2ccccc12
IC50 (K562 [1]): 2740 nM

Compound: C=C(c1ccc2[nH]ccc2c1)c1cc(/C=C/C(=O)NO)nc2ccccc12
inhibition at 1 µM (K562 [2]): 4.78%
inhibition at 0.1 µM (K562 [3]): 3.73%
inhibition at 0.01 µM (K562 [4]): 3.16%

Compound: C=C(c1ccc(OC)cc1)c1cc(COCC(=O)NO)nc2ccccc12
inhibition at 1 µM (K562 [2]): 40%
inhibition at 0.1 µM (K562 [3]): 3%
inhibition at 0.01 µM (K562 [4]): 2.6%

Compound: C=C(c1ccnc(OC)c1)c1ccc(OC)c(OCCCCCC(=O)NO)c1
IC50 (K562 [1]): 3860 nM

Compound: C=C(c1cccc(OC(C)C(=O)NO)c1)c1cc(C)nc2ccccc12 (stereo not drawn)
IC50 (K562 [1]): 2370 nM

The remaining molecules from weak to strong by IC50 (K562 [1]), led by results:

IC50 (K562 [1]): 1140 nM
Compound: C=C(c1ccnc(OC)c1)c1ccc(OC)c(OCCCC(=O)NO)c1

IC50 (K562 [1]): 516 nM
Compound: C=C(c1cc(C)nc(C)c1)c1ccc(OC)c(OCCCC(=O)NO)c1

IC50 (K562 [1]): 204 nM
Compound: C=C(c1ccc(OC)c(OC(F)(F)C(=O)NO)c1)c1cc(C)nc2ccccc12

IC50 (K562 [1]): 173 nM
Compound: C=C(c1ccc(OC)c(OCCCC(=O)NO)c1)c1cc(C)nc2ccccc12

IC50 (K562 [1]): 107 nM
Compound: C=C(c1ccnc(C)c1)c1ccc(OC)c(OCC(=O)NO)c1

IC50 (K562 [1]): 79 nM
Compound: C=C(c1ccc(OC)c(OCC(=O)NO)c1)c1ccnc2ccccc12

IC50 (K562 [1]): 69 nM
Compound: C=C(c1ccc(OC)c(OC(C)C(=O)NO)c1)c1ccnc2ccccc12 (stereo not drawn)

IC50 (K562 [1]): 61 nM
Compound: C=C(c1ccc(OC)c(OCCC(=O)NO)c1)c1cc(C)nc2ccccc12

IC50 (K562 [1]): 61 nM
Compound: C=C(c1ccnc(OC)c1)c1ccc(OC)c(OC(C)C(=O)NO)c1 (stereo not drawn)

IC50 (K562 [1]): 60 nM
Compound: C=C(c1ccnc(C)c1)c1ccc(OC)c(OC(C)C(=O)NO)c1 (stereo not drawn)

IC50 (K562 [1]): 55 nM
Compound: C=C(c1ccnc(OC)c1)c1ccc(OC)c(OCC(=O)NO)c1

IC50 (K562 [1]): 42 nM
IC50 (B16-F10): 15 nM
IC50 (MCF7): 17 nM
IC50 (MDA-MB-231): 11 nM
IC50 (A549): 9 nM
IC50 (A2780): 5 nM
Compound: C=C(c1ccc(OC)c(/C=C/C(=O)NO)c1)c1cc(C)nc2ccccc12
IC50 at 72 h [5]: 311 nM

IC50 (K562 [1]): 26 nM
IC50 (B16-F10): 98 nM
IC50 (MCF7): 52 nM
IC50 (MDA-MB-231): 111 nM
IC50 (A549): 69 nM
IC50 (A2780): 36 nM
Compound: C=C(c1cc(C)nc(C)c1)c1ccc(OC)c(OCC(=O)NO)c1
IC50 at 72 h [5]: 264 nM

IC50 (K562 [1]): 19 nM
IC50 (B16-F10): 72 nM
IC50 (MCF7): 19 nM
IC50 (MDA-MB-231): 99 nM
IC50 (A549): 80 nM
IC50 (A2780): 23 nM
Compound: C=C(c1cc(C)nc(C)c1)c1ccc(OC)c(OC(C)C(=O)NO)c1 (stereo not drawn)
IC50 at 72 h [5]: 213 nM

IC50 (K562 [1]): 8 nM
IC50 (B16-F10): 28 nM
IC50 (MCF7): 55 nM
IC50 (MDA-MB-231): 32 nM
IC50 (A549): 38 nM
IC50 (A2780): 16 nM
Compound: C=C(c1ccc(OC)c(OCC(=O)NO)c1)c1cc(C)nc2ccccc12
IC50 at 72 h [5]: 195 nM

IC50 (K562 [1]): 5 nM
IC50 (B16-F10): 4 nM
IC50 (MCF7): 44 nM
IC50 (MDA-MB-231): 31 nM
IC50 (A549): 9 nM
IC50 (A2780): 8 nM
Compound: C=C(c1ccc(OC)c(OC(C)(C)C(=O)NO)c1)c1cc(C)nc2ccccc12
IC50 at 72 h [5]: 103 nM
